The experiment relates to CEM cells HIV-1 protection, formazan growth assay. The experiment is described as follows: NCI AIDS Antiviral Assay. To be noted: for IC50: measured here: growth of uninfected CEM cells. An outline of the steps: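 Protection of CEM cells against HIV-1 was scored from cell growth (soluble formazan) across five concentrations, with parallel uninfected cells. Lack of protection may reflect toxicity.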

The source made the active and inactive calls.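 How the source made its calls: active means compounds giving half or more protection of infected cells from virus-caused growth loss, again on retest; inactive means the rest.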

For orientation: EC50 means the midpoint of the concentration-response curve. By IC50 is commonly meant the concentration at which inhibition is half-maximal. Read a high IC50 as weaker potency in that assay. Consider `CCCCCCCCCCCCCCCC(=O)Nc1ccn(C2CCC(COP(=O)(O)OC3CC(n4cc(C)c(=O)[nH]c4=O)OC3CO)O2)c(=O)n1` (stereo not given), for which the EC50 is 0.0933 µM and the IC50 was 45.7 µM. On the same counts, the results for `O=c1oc(-c2ccccc2NS(=O)(=O)c2ccccc2)nc2cc(Cl)ccc12` are > 200 µM and 1.45 µM.

Consider `NCCCN(CCCCN(CCCN)C(=O)OCc1ccccc1)C(=O)OCc1ccccc1`, for which the result was inactive. Turning to `CC(=O)Nc1cc(Nc2cc(=O)[nH]c(=O)[nH]2)ccc1C`, the EC50 is > 200 µM and the IC50 was > 200 µM. Take `COc1ccc(Cc2nn(C3OC(COC(C)=O)C(OC(C)=O)C(OC(C)=O)C3OC(C)=O)c(=S)n(-c3ccc(OC)cc3)c2=O)cc1` (stereo not given): the outcome was inactive.

`COc1ccc(C(c2ccc3c(c2)OCO3)N2C(=O)CCC2C(=O)O)cc1` (stereo not given): the EC50 was > 200 µM and the IC50 is > 200 µM. As for `CN(C)CCCNCc1cc(N(C)C)cc(CNCCCN(C)C)n1`, the EC50 is > 200 µM and the IC50 was > 200 µM. In the case of `CC(=O)C1=C(C)N2C(=NC3=C(CCc4ccccc43)C2c2ccc(Cl)cc2)S1` (stereo not given), the EC50 was > 200 µM and the IC50 stood at 18.6 µM. In the case of `CC1=C(C(=O)Nc2ccc([N+](=O)[O-])cc2)C(c2ccc(N(C)C)cc2)C(C(=O)Nc2ccc([N+](=O)[O-])cc2)=C(C)N1`, the EC50 is > 17.8 µM and the IC50 is > 17.8 µM.

Consider `CC1=CCCC2C(C1)C(=O)CC(C)C2(C)CC/C(=C/CO)CO` (stereo not given), for which the outcome was inactive. Take `Clc1ccc(-c2nc3ccc(C45CC6CC(CC(C6)C4)C5)cc3[nH]2)cc1`: the EC50 was > 100 µM and the IC50 was > 100 µM. With `O=C([O][Bi]([c]1ccccc1)[c]1ccccc1)C(F)(F)F`, the EC50 is > 20 µM and the IC50 is 15.1 µM.

As to `Nc1ccc(/C=C/c2ccc(NC(=O)c3cc(S(=O)(=O)O)c4cccnc4c3O)cc2S(=O)(=O)O)c(S(=O)(=O)O)c1`, the EC50 was 58.9 µM and the IC50 is > 200 µM. On the same counts, the results for `O=C1N[C@@H](Cc2ccccc2)C(=O)N2CSC[C@H]12` are > 631 µM and > 631 µM. With `COc1ccccc1NC(=O)/C(=C\N1CCNC1=S)C(C)=O`, the EC50 is > 200 µM and the IC50 is > 200 µM. `CN(C)CCCOC(=O)C1C[C@@H](O)CN1C(=O)c1ccc2c(c1)OCO2` (stereo not given in full): the EC50 was > 200 µM and the IC50 was > 200 µM. With `N#CC1=C(S)N(C2OC(CO)C(O)C(O)C2O)C(c2ccccc2)=CC1c1ccco1` (stereo not given), the EC50 is > 200 µM and the IC50 was 42.7 µM.

Regarding `CCOC(=O)CC(C)CCO` (stereo not given), the EC50 is > 1550 µM and the IC50 is > 1550 µM.

Turning to `CCC(=O)OC1CCn2c1nc1c2C(=O)C(C)=C(NC(C)=O)C1=N` (stereo not given), the EC50 is > 200 µM and the IC50 was determined as 3.55 µM.

For `CCN1C(=O)C(N2CCCCC2)S/C1=C\C(=O)O` (stereo not given), the EC50 is > 933 µM and the IC50 is 457 µM. On the same counts, the results for `N#CCc1ccccc1C(=O)O` are > 1550 µM and 891 µM. `CCOC(=O)C1(C(C)=O)OC(=O)c2cnccc21` (stereo not given): the EC50 is > 200 µM and the IC50 is > 200 µM. Consider `CN1C=C/C(=C/[N+](=O)[O-])N(C)C1=O`, for which the EC50 was > 200 µM and the IC50 was > 200 µM. `CCOC(=O)c1sc2nc(SC)nc(N3CCCCC3)c2c1N`: the EC50 was > 100 µM and the IC50 was > 100 µM.

Turning to `COc1nc(N)c(C#N)c(C#N)c1C#N`, the EC50 is > 200 µM and the IC50 is > 200 µM. In the case of `CCOC(=O)C[P+](c1ccc(OC)cc1)(c1ccc(OC)cc1)c1ccc(OC)cc1`, the EC50 is > 200 µM and the IC50 is 33.1 µM. In the case of `CCCCCCCNC(C)(C)C(SSSC(c1ccc(Cl)cc1)C(C)(C)NCCCCCCC)c1ccc(Cl)cc1` (stereo not given), the EC50 was > 100 µM and the IC50 is > 100 µM. As to `CC(=O)OCC1OC(n2c(=S)n(-c3ccc([N+](=O)[O-])cc3)c(=O)c3ccccc32)C(OC(C)=O)C(OC(C)=O)C1OC(C)=O` (stereo not given), the EC50 is > 29.5 µM and the IC50 is > 29.5 µM. As to `O=C(Nc1ccc(Cl)c(Cl)c1)Nc1ccc([N+](=O)[O-])cn1`, the EC50 was > 200 µM and the IC50 is > 200 µM. Consider `CC1=CCC2CC1C(C(=O)c1c[nH]c3ccccc13)=NC2(C)C` (stereo not given), for which the EC50 was > 81.3 µM and the IC50 is > 81.3 µM. For the molecule `COc1cc2cc(C(=O)N3CC(CCl)c4ccc(N)cc43)[nH]c2c(OC)c1OC` (stereo not given), the EC50 is > 1.51 µM and the IC50 was found to be 0.295 µM. As to `O=C(O)C[C@H](Cl)[C@H](NC(=O)OCc1ccccc1)C(=O)O`, the outcome was inactive. On to `CCOC1CN(C)C(=Nc2cccc3ccccc23)S1` (stereo not given), for which the EC50 was 4.9 µM and the IC50 turned out to be 148 µM. `Cc1cc(C)nc(NS(=O)(=O)c2ccc(NCN3C(=O)c4ccccc4C3=O)cc2)n1`: the EC50 is > 200 µM and the IC50 was 110 µM. For `O=C1CCCC1CN1CCCCC1` (stereo not given), the result was inactive. Consider `Cc1cccc2nc3nc(Cl)c(Cl)nc3n12`, for which the EC50 was > 200 µM and the IC50 came to 129 µM. On the same counts, the results for `O=C(Nc1ccc(/C=C\c2ccc([N+](=O)[O-])cc2S(=O)(=O)O)c(S(=O)(=O)O)c1)OCc1ccccc1` are > 200 µM and > 200 µM. The like results for `COc1ccc(/C=C2\S/C(=N/Nc3nc(-c4ccccc4)cs3)NC2=O)cc1OC` were, in that order, > 200 µM and 31.6 µM. On the same counts, the results for `CN1C(=O)c2ccccc2OC12C=Cc1c(ccc3ccccc13)O2` (stereo not given) are > 195 µM and 14.1 µM. `COC(C)(C)C/C=C/C(C)=C/C=C/C(C)=C\C=C\C(C)=C\C=C\C=C(C)\C=C\C=C(C)\C=C\C=C(C)\C=C\CC(C)(C)OC`: the outcome was inactive.

On to `CN(C)CCOc1ccc(/C(=C(/CCCl)c2ccccc2)c2ccccc2)cc1`, for which the EC50 was > 43.7 µM and the IC50 was found to be 0.38 µM.

For the molecule `O=S(=O)(c1ccc(O)cc1)c1ccc(I)cc1`, the EC50 is > 200 µM and the IC50 is 64.6 µM.

As for `CCCC(CCC)C(=O)[O-].CCCC(CCC)C(=O)[O-].CCCC(CCC)C(=O)[O-].CCCC(CCC)C(=O)[O-].[Cu+2].[Cu+2]`, the EC50 was > 50.1 µM and the IC50 worked out at 7.41 µM. On the same counts, the results for `Cc1cc(OP2(=O)NCc3ccncc3O2)ccc1Cl` (stereo not given) are > 200 µM and > 200 µM.

`CCOC(=O)C1(c2ccccc2)CCCNCC1` (stereo not given): the EC50 is > 112 µM and the IC50 is > 112 µM. In the case of `O=C1/C(=C/c2ccccc2)CN(C(=O)OCC(Cl)(Cl)Cl)C/C1=C\c1ccccc1`, the result was inactive. As for `N#CC1([N+](=O)[O-])C=C1c1ccccc1` (stereo not given), the EC50 is > 200 µM and the IC50 is 89.1 µM. In the case of `CC(=O)Nc1ccc(C(=O)OCC2OC(n3cc(C)c(=O)[nH]c3=O)CC2N=[N+]=[N-])cc1` (stereo not given), the EC50 is 0.148 µM and the IC50 is 38.9 µM. Take `O=C(O)C1=CCCc2ccc3ccccc3c21`: the result was inactive. As to `C[N+](C)(C)CC(=O)NC(=O)N/N=C\C(CC#N)CN(Cc1ccccc1)Cc1ccccc1` (stereo not given), the EC50 was > 74.1 µM and the IC50 was > 74.1 µM.

On to `COC(=O)c1cc(C(=O)OC)c(CC(=O)C(=O)Nc2c(C(C)C)cccc2C(C)C)nc1CC(=O)C(=O)Nc1c(C(C)C)cccc1C(C)C`, for which the EC50 is > 200 µM and the IC50 is > 200 µM. `COc1ccc(/C=C/c2ccc3ccccc3n2)cc1OC`: the EC50 was > 200 µM and the IC50 was determined as 36.3 µM. Regarding `COc1ccc(-c2c3c(n(C4OC(CO)C(O)C(O)C4O)c(=S)c2C#N)CCC3)cc1` (stereo not given), the EC50 was > 200 µM and the IC50 is 43.7 µM.

As to `c1ccc(P(c2ccccc2)c2ccc(P(c3ccccc3)c3ccccc3)nn2)cc1`, the EC50 was > 8.51 µM and the IC50 is > 8.51 µM. With `COc1c2c(c3ccccc3c1O)C1C=CC2C1` (stereo not given), the EC50 was > 110 µM and the IC50 was determined as 10 µM. The like results for `CC(=O)Oc1ccc([As](=O)(O)O)cc1N` were, in that order, > 200 µM and > 200 µM.

Take `COc1cc(-c2cccs2)sc1-c1cccs1`: the EC50 was > 9.77 µM and the IC50 is > 9.77 µM. Regarding `NC(=O)C(N)CC12CC3CC(CC(C3)C1)C2` (stereo not given), the EC50 is > 200 µM and the IC50 came out at 39.8 µM. `O=C(CCC(=O)c1ccc(Cl)cc1)NO`: the EC50 is > 200 µM and the IC50 is 123 µM. As for `NCCCNC(=O)c1csc(NC(=O)c2csc(NC(=O)CCCN)n2)n1`, the EC50 is > 437 µM and the IC50 amounted to 174 µM. On to `CC12CCC(C)(c3cc(O)c(O)cc31)c1cc(O)c(O)cc12`, for which the outcome was inactive.

For the molecule `C=C1C(=O)OC2CC1(C)OCC2[C@H]1CCC2C3CC=C4CC=CC(=O)[C@]4(C)C3CC[C@@]21C` (stereo not given in full), the EC50 is > 155 µM and the IC50 is 3.31 µM. Turning to `CC(=O)Nc1cc(S(=O)(=O)O)cc2cc(S(=O)(=O)O)c(N=Nc3ccc(C(=O)Nc4ccc5cc(S(=O)(=O)O)ccc5c4)cc3)c(O)c12`, the outcome was inactive. Regarding `c1ccc2c(c1)CCN2CCN1CCc2ccccc21`, the EC50 is > 200 µM and the IC50 is 145 µM. On the same counts, the results for `N#Cc1c(-c2ccc(Cl)cc2)c(-c2ccc(Cl)cc2)nn(CCOC(=O)CCC(=O)O)c1=O` are > 513 µM and 0.468 µM.

Turning to `Nc1nc(N)nc(Nc2ccc([As](=O)(O)O)cc2)n1`, the EC50 is > 21.9 µM and the IC50 was > 21.9 µM. Take `OCC1CC(F)C(n2cnc3c(Br)ncnc32)O1` (stereo not given): the EC50 was > 158 µM and the IC50 was determined as 27.5 µM.

As for `NC1=NN(c2ccccc2)C(=O)C1/C(=N\NC(=O)c1cc2ccccc2cc1O)C(=O)Nc1ccc(Cl)c(Cl)c1` (stereo not given), the EC50 was > 45.7 µM and the IC50 is > 45.7 µM. Turning to `CCC1Sc2cc(OC)cc(N)c2NC1=O` (stereo not given), the EC50 was > 200 µM and the IC50 is > 200 µM. `CCOC(=O)C1S/C(=N\C(=N)N[N+](=O)[O-])N=C1C` (stereo not given): the outcome was inactive. Same read-out and setting: as for `Cc1cc(O)c2c(O)c3c(O)cc(=O)c(-c4c(=O)cc(O)c5c(O)c6c(O)cc(C)oc6cc45)c3cc2o1`, the entry is “inactive”.

For the origin of these results see PubChem BioAssay AID179 (DTP/NCI, 2004).
